How the values were obtained:
[1] = Half-life was determined; type: ADME; conditions: human
[2] = species: Cavia porcellus; experiment: In vitro inhibition of contractions in the electrically stimulated guinea pig ileum.; type: functional
[3] = test system: Mus musculus; experiment: In vivo analgesic activity in the mouse tail-flick assay following i.c.v. administration.; type: functional
[4] = Half-life of the compound; type: ADME
[5] = test system: Mus musculus; experiment: In vivo analgesic potency in mice compared to morphine after s.c. administration.; type: functional
[6] = test system: Mus musculus; experiment: In vivo analgesic activity in the mouse tail-flick assay following s.c. administration.; type: functional; conditions: sc
[7] = test system: Mus musculus; experiment: In vivo analgesic potency in mice compared to morphine after i.c.v. administration.; type: functional

Row | SMILES | half-life [1] | IC50 [2] | ED50 [3] | half-life [4] | Relative potency [5] | ED50 [6] | Relative potency [7]
1 | C[C@@H](NC(=O)[C@@H](N)Cc1ccc(O)cc1)C(=O)N[C@@H](Cc1ccccc1)NC(=O)CC(=O)NO | 30 min | 330 nM | 1600 pmol/mouse |  |  |  | 
2 | CCONC(=O)CNC(=O)[C@H](Cc1ccccc1)NC(=O)[C@@H](C)NC(=O)[C@@H](N)Cc1ccc(O)cc1 | 20 min | 191 nM | 492 pmol/mouse |  |  |  | 
3 | CC(NC(=O)CC(=O)N[C@H](Cc1ccccc1)NC(=O)[C@@H](C)NC(=O)[C@@H](N)Cc1ccc(O)cc1)c1ccccc1 (stereo partly specified) | 65 min | 2.05 nM | 88.6 pmol/mouse | 60 min | 0.24 | 44.2 µmol/kg | 
4 | CC(NC(=O)CNC(=O)[C@H](Cc1ccccc1)NC(=O)[C@@H](C)NC(=O)[C@@H](N)Cc1ccc(O)cc1)c1ccccc1 (stereo partly specified) | 40 min | 0.59 nM | 7.61 pmol/mouse |  |  | 13.6 µmol/kg | 
5 | CC(C(=O)NCC(=O)N[C@H](Cc1ccccc1)N(C)C(=O)[C@@H](C)NC(=O)[C@@H](N)Cc1ccc(O)cc1)c1ccccc1 (stereo partly specified) | 60 min | 31.2 nM | 269 pmol/mouse |  |  |  | 
6 | CN1CC[C@]23c4c5ccc(O)c4O[C@H]2[C@@H](O)C=C[C@H]3[C@H]1C5 [MORPHINE] |  |  | 3030 pmol/mouse |  |  | 10.9 µmol/kg | 
7 | C[C@@H](NC(=O)[C@@H](N)Cc1ccc(O)cc1)C(=O)N[C@@H](Cc1ccccc1)NC(=O)CC(N)=O | 35 min | 242 nM | 974 pmol/mouse |  |  |  | 3.11
8 | C[C@@H](NC(=O)[C@@H](N)Cc1ccc(O)cc1)C(=O)N(C)[C@@H](Cc1ccccc1)NC(=O)CNC(=O)Cc1ccccc1 | 45 min | 25.2 nM | 292 pmol/mouse |  |  |  | 
9 | CC(C(=O)NCNC(=O)[C@H](Cc1ccccc1)NC(=O)[C@@H](C)NC(=O)[C@@H](N)Cc1ccc(O)cc1)c1ccccc1 (stereo partly specified) | 65 min | 0.5 nM | 19.2 pmol/mouse | 65 min |  | 39.5 µmol/kg | 
10 | C[C@@H](NC(=O)[C@@H](N)Cc1ccc(O)cc1)C(=O)N[C@@H](Cc1ccccc1)NC(=O)CC(=O)NC12CC3CC(CC(C3)C1)C2 | 65 min | 4.45 nM | 88.4 pmol/mouse | 50 min |  | 55.5 µmol/kg | 
11 | C[C@@H](NC(=O)[C@@H](N)Cc1ccc(O)cc1)C(=O)N[C@@H](Cc1ccccc1)C(=O)NCC(=O)NCc1ccccc1 | 30 min | 2.97 nM | 33.1 pmol/mouse |  |  |  | 
12 | C[C@@H](NC(=O)[C@@H](N)Cc1ccc(O)cc1)C(=O)N[C@@H](Cc1ccccc1)C(=O)NCNC(=O)C12CC3CC(CC(C3)C1)C2 | 80 min | 0.31 nM | 10.9 pmol/mouse | 65 min |  | 21.7 µmol/kg | 
13 | C[C@@H](NC(=O)[C@@H](N)Cc1ccc(O)cc1)C(=O)N[C@@H](Cc1ccccc1)NC(=O)CC(=O)NCc1ccccc1 | 35 min | 18.2 nM | 556 pmol/mouse |  |  |  | 
14 | C[C@@H](NC(=O)[C@@H](N)Cc1ccc(O)cc1)C(=O)N(C)[C@@H](Cc1ccccc1)NC(=O)CNC(=O)C12CC3CC(CC(C3)C1)C2 | 55 min | 19.2 nM | 246 pmol/mouse |  |  |  | 
15 | C[C@@H](NC(=O)[C@@H](N)Cc1ccc(O)cc1)C(=O)N[C@@H](Cc1ccccc1)C(=O)NCC(=O)NO | 25 min | 108 nM | 140 pmol/mouse |  |  |  | 
16 | CCONC(=O)CC(=O)N[C@H](Cc1ccccc1)NC(=O)[C@@H](C)NC(=O)[C@@H](N)Cc1ccc(O)cc1 | 30 min | 320 nM | 1630 pmol/mouse |  |  |  | 
17 | C[C@@H](NC(=O)[C@@H](N)Cc1ccc(O)cc1)C(=O)N[C@@H](Cc1ccccc1)C(=O)NCC(=O)NC12CC3CC(CC(C3)C1)C2 | 35 min | 2.05 nM | 5.12 pmol/mouse |  |  | 18.8 µmol/kg | 
18 | C[C@@H](NC(=O)[C@@H](N)Cc1ccc(O)cc1)C(=O)N[C@@H](Cc1ccccc1)C(=O)NCC(N)=O | 30 min | 45.2 nM | 68 pmol/mouse |  |  | 68.1 µmol/kg | 
19 | C[C@@H](NC(=O)[C@@H](N)Cc1ccc(O)cc1)C(=O)N[C@@H](Cc1ccccc1)C(=O)NCNC=O | 40 min | 39.2 nM | 157 pmol/mouse |  |  |  | 
20 | C[C@@H](NC(=O)[C@@H](N)Cc1ccc(O)cc1)C(=O)N[C@@H](Cc1ccccc1)C(=O)NCNC(=O)Cc1ccccc1 | 60 min | 2.12 nM | 74.1 pmol/mouse | 45 min |  | 27.8 µmol/kg | 
21 | C[C@@H](NC(=O)[C@@H](N)Cc1ccc(O)cc1)C(=O)N(C)[C@@H](Cc1ccccc1)NC(=O)CNC=O | 35 min | 380 nM | 642 pmol/mouse |  |  |  | 
22 | C[C@@H](NC(=O)[C@@H](N)Cc1ccc(O)cc1)C(=O)N[C@@H](Cc1ccccc1)C(=O)NCC(=O)N[C@@H](Cc1ccc(O)cc1)C(=O)N1CCC[C@H]1C(=O)N[C@@H](CO)C(N)=O [DERMORPHIN] | 40 min |  | 11.4 pmol/mouse | 35 min |  | 2.75 µmol/kg | 
